In a flash point compilation (Sun et al. 2020):
Where a name gives a salt, the structure may show the parent alone.

Question: For `CCCCCCCCCCCCc1ccccc1O` [2-dodecylphenol], which flash point is on record?
Answer: 163.00 °C

Question: For `NC(=O)/N=N/C(N)=O` [(E)-carbamoyliminourea], which flash point is on record?
Answer: 96.00 °C

Question: With `CCSC(=O)N(CC(C)C)CC(C)C` [S-ethyl N,N-bis(2-methylpropyl)carbamothioate] as the molecule, how does the flash point read?
Answer: 116.00 °C

Question: For `CCNC1CCCCC1` [N-ethylcyclohexanamine], which flash point is on record?
Answer: 29.00 °C

Question: Which flash point does the source give for `C#CCBr` [3-bromoprop-1-yne] here?
Answer: 10.00 °C

Question: Which flash point does the source give for `COCOC` [dimethoxymethane] here?
Answer: -18.00 °C

Question: Which flash point does the source give for `Cc1cccc(C)c1N.Cl` [2,6-dimethylaniline;hydrochloride] here?
Answer: 91.00 °C

Question: Which flash point does the source give for `CCCC(=O)CCC` [heptan-4-one] here?
Answer: 49.00 °C

Question: With `CC1=CCC(=C(C)C)CC1` [1-methyl-4-propan-2-ylidenecyclohexene] as the molecule, how does the flash point read?
Answer: 64.00 °C

Question: Which flash point does the source give for `c1ccc2occc2c1` [1-benzofuran] here?
Answer: 56.00 °C

Question: With `CC(C)C(=O)O.CC(C)C(O)C(C)(C)CO` (stereo not drawn) [2-methylpropanoic acid;2,2,4-trimethylpentane-1,3-diol] as the molecule, how does the flash point read?
Answer: 120.00 °C

Question: For `CCON=O` [ethyl nitrite], which flash point is on record?
Answer: -35.00 °C

Question: With `COCC(C)O` (stereo not drawn) [1-methoxypropan-2-ol] as the molecule, how does the flash point read?
Answer: 36.00 °C

Question: For `Cc1ccc(C#N)cc1` [4-methylbenzonitrile], which flash point is on record?
Answer: 85.00 °C

Question: For `CCCCN(CCCC)CCCC` [N,N-dibutylbutan-1-amine], which flash point is on record?
Answer: 85.00 °C

Question: With `O=C1c2ccccc2C(=O)N1SC1CCCCC1` [2-cyclohexylsulfanylisoindole-1,3-dione] as the molecule, how does the flash point read?
Answer: 177.00 °C

Question: Which flash point does the source give for `CCC(Cl)[N+](=O)[O-]` (stereo not drawn) [1-chloro-1-nitropropane] here?
Answer: 62.00 °C

Question: With `CCC(C)C` [2-methylbutane] as the molecule, how does the flash point read?
Answer: -57.00 °C

Question: For `O=COCCOC=O` [2-formyloxyethyl formate], which flash point is on record?
Answer: 93.00 °C

Question: For `CC(CO)CO` [2-methylpropane-1,3-diol], which flash point is on record?
Answer: 127.00 °C

Question: With `CCOC(=O)C(C)O` (stereo not drawn) [ethyl 2-hydroxypropanoate] as the molecule, how does the flash point read?
Answer: 46.00 °C

Question: With `CCCCC(C)=O` [hexan-2-one] as the molecule, how does the flash point read?
Answer: 23.00 °C

Question: Which flash point does the source give for `OC[C@@H](O)[C@@H](O)[C@H](O)[C@@H](O)CO` [(2R,3R,4R,5S)-hexane-1,2,3,4,5,6-hexol] here?
Answer: 283.00 °C

Question: For `O=C(Cl)c1ccccc1` [benzoyl chloride], which flash point is on record?
Answer: 72.00 °C

Question: With `C=CCc1ccc(O)c(OC)c1` [2-methoxy-4-prop-2-enylphenol] as the molecule, how does the flash point read?
Answer: 104.00 °C

Question: For `C=CC(N)=O` [prop-2-enamide], which flash point is on record?
Answer: 138.00 °C

Question: Which flash point does the source give for `C=C/C=C/C` [(3E)-penta-1,3-diene] here?
Answer: -29.00 °C

Question: Which flash point does the source give for `OCC(Cl)Cl` [2,2-dichloroethanol] here?
Answer: 78.00 °C

Question: For `CC[N+](=O)[O-]` [1-nitroethane], which flash point is on record?
Answer: 41.00 °C

Question: For `CC1(O)CCCCC1` [1-methylcyclohexan-1-ol], which flash point is on record?
Answer: 67.00 °C

Question: With `Oc1c(Cl)cc(Cl)c(Cl)c1Cl` [2,3,4,6-tetrachlorophenol] as the molecule, how does the flash point read?
Answer: 100.00 °C

Question: For `CN=C=O` [methylimino(oxo)methane], which flash point is on record?
Answer: -7.00 °C

Question: For `CCCCCCCC(=O)OCC(COC(=O)CCCCCCC)OC(=O)CCCCCCC` [2,3-di(octanoyloxy)propyl octanoate], which flash point is on record?
Answer: 177.00 °C

Question: With `[CH3][Pb]([CH3])([CH3])[CH3]` [tetramethylplumbane] as the molecule, how does the flash point read?
Answer: 38.00 °C

Question: With `C1CCCCCC1` [cycloheptane] as the molecule, how does the flash point read?
Answer: 6.00 °C

Question: For `ClC1=C(Cl)C2(Cl)C3C(Cl)C(Cl)CC3C1(Cl)C2(Cl)Cl` (stereo not drawn) [1,3,4,7,8,9,10,10-octachlorotricyclo[5.2.1.02,6]dec-8-ene], which flash point is on record?
Answer: 107.00 °C

Question: For `CCCCCCCCCCCCCCCC` [hexadecane], which flash point is on record?
Answer: 135.00 °C

Question: With `CC1CN1` (stereo not drawn) [2-methylaziridine] as the molecule, how does the flash point read?
Answer: -4.00 °C

Question: Which flash point does the source give for `CCCCCCCCOP(=O)(O)OCCCCCCCC` [dioctyl hydrogen phosphate] here?
Answer: 196.00 °C

Question: For `CSSC` [(methyldisulfanyl)methane], which flash point is on record?
Answer: 24.00 °C

Question: Which flash point does the source give for `C=C(C)C(=O)OCC(C)C` [2-methylpropyl 2-methylprop-2-enoate] here?
Answer: 49.00 °C

Question: With `CCCCOC(=O)CCC` [butyl butanoate] as the molecule, how does the flash point read?
Answer: 53.00 °C

Question: For `C=CC(=O)OCCCCCCCCCC` [decyl prop-2-enoate], which flash point is on record?
Answer: 127.00 °C

Question: For `N#CC(O)c1ccccc1` (stereo not drawn) [2-hydroxy-2-phenylacetonitrile], which flash point is on record?
Answer: 82.00 °C

Question: With `O=C(Cl)OCc1ccccc1` [benzyl carbonochloridate] as the molecule, how does the flash point read?
Answer: 108.00 °C

Question: For `CN(C)C1CCCCC1` [N,N-dimethylcyclohexanamine], which flash point is on record?
Answer: 42.00 °C

Question: For `C=CCSSCCC` [1-(prop-2-enyldisulfanyl)propane], which flash point is on record?
Answer: 56.00 °C

Question: Which flash point does the source give for `SCc1ccccc1` [phenylmethanethiol] here?
Answer: 70.00 °C

Question: Which flash point does the source give for `C=CCc1ccc2c(c1)OCO2` [5-prop-2-enyl-1,3-benzodioxole] here?
Answer: 98.00 °C

Question: For `CCC#N` [propanenitrile], which flash point is on record?
Answer: 2.00 °C

Question: With `CC(C)C=O` [2-methylpropanal] as the molecule, how does the flash point read?
Answer: -40.00 °C

Question: With `CC(C)(C)C(=O)C(Oc1ccc(Cl)cc1)n1cncn1` (stereo not drawn) as the molecule, how does the flash point read?
Answer: 72.00 °C

Question: Which flash point does the source give for `CCCCOC(=O)CCC(=O)OCCCC` [dibutyl butanedioate] here?
Answer: 135.00 °C

Question: Which flash point does the source give for `CCCCOCCOCCCC` [1-(2-butoxyethoxy)butane] here?
Answer: 85.00 °C

Question: With `C=C(C)[C@H]1CC=C(C)CC1` [(4R)-1-methyl-4-prop-1-en-2-ylcyclohexene] as the molecule, how does the flash point read?
Answer: 48.00 °C

Question: With `OCC(Cl)CCl` (stereo not drawn) [2,3-dichloropropan-1-ol] as the molecule, how does the flash point read?
Answer: 91.00 °C

Question: With `CCCCNC1CCCCC1` [N-butylcyclohexanamine] as the molecule, how does the flash point read?
Answer: 93.00 °C

Question: With `CC1CCC(C(C)(C)OO)CC1` (stereo not drawn) [1-(2-hydroperoxypropan-2-yl)-4-methylcyclohexane] as the molecule, how does the flash point read?
Answer: 53.00 °C

Question: For `CN(CCO)CCO` [2-[2-hydroxyethyl(methyl)amino]ethanol], which flash point is on record?
Answer: 127.00 °C

Question: Which flash point does the source give for `CCC[CH2][Sn]([Cl])([Cl])[Cl]` [butyl(trichloro)stannane] here?
Answer: 81.00 °C

Question: With `CC(O)CCO` (stereo not drawn) [butane-1,3-diol] as the molecule, how does the flash point read?
Answer: 121.00 °C

Question: With `CC(Cl)CCl.ClC=CCCl` (stereo not drawn) [1,2-dichloropropane;(E)-1,3-dichloroprop-1-ene] as the molecule, how does the flash point read?
Answer: 17.00 °C

Question: Which flash point does the source give for `C=CC(=O)OCCOC` [2-methoxyethyl prop-2-enoate] here?
Answer: 82.00 °C

Question: Which flash point does the source give for `CCOCC(=O)O` [2-ethoxyacetic acid] here?
Answer: 98.00 °C

Question: For `CCOS(=O)(=O)c1ccc(C)cc1` [ethyl 4-methylbenzenesulfonate], which flash point is on record?
Answer: 158.00 °C

Question: For `CCC(C)S` (stereo not drawn) [butane-2-thiol], which flash point is on record?
Answer: -23.00 °C

Question: Which flash point does the source give for `CCCCCCCCCCCCN` [dodecan-1-amine] here?
Answer: 178.00 °C

Question: For `CCO[Si](OCC)(OCC)OCC` [tetraethyl silicate], which flash point is on record?
Answer: 37.00 °C

Question: Which flash point does the source give for `OCC#CCO` [but-2-yne-1,4-diol] here?
Answer: 128.00 °C

Question: Which flash point does the source give for `Cc1ccccc1CBr` [1-(bromomethyl)-2-methylbenzene] here?
Answer: 82.00 °C

Question: With `Cc1cc(Cl)ccc1N` [4-chloro-2-methylaniline] as the molecule, how does the flash point read?
Answer: 160.00 °C

Question: With `O=C(O)CBr` [2-bromoacetic acid] as the molecule, how does the flash point read?
Answer: 113.00 °C

Question: With `Oc1ccccc1` [phenol] as the molecule, how does the flash point read?
Answer: 79.00 °C

Question: Which flash point does the source give for `CCCCC(=O)CC` [heptan-3-one] here?
Answer: 46.00 °C

Question: For `CN(C)CCOCCN(C)C` [2-[2-(dimethylamino)ethoxy]-N,N-dimethylethanamine], which flash point is on record?
Answer: 79.00 °C

Question: With `Cc1cccc(OP(=O)(Oc2cccc(C)c2)Oc2cccc(C)c2)c1` [tris(3-methylphenyl) phosphate] as the molecule, how does the flash point read?
Answer: 210.00 °C

Question: For `CC1CCC(O)CC1` (stereo not drawn) [4-methylcyclohexan-1-ol], which flash point is on record?
Answer: 70.00 °C

Question: Which flash point does the source give for `C#CC(C)(C)O` [2-methylbut-3-yn-2-ol] here?
Answer: 25.00 °C

Question: With `CN(C)CCN(C)C` [N,N,N',N'-tetramethylethane-1,2-diamine] as the molecule, how does the flash point read?
Answer: 10.00 °C

Question: With `OCCCO` [propane-1,3-diol] as the molecule, how does the flash point read?
Answer: 174.00 °C

Question: With `CNC(=O)NC` [1,3-dimethylurea] as the molecule, how does the flash point read?
Answer: 154.00 °C

Question: Which flash point does the source give for `CCCCCCC(O)C/C=C\CCCCCCCC(=O)OCC(COC(=O)CCCCCCC/C=C\CC(O)CCCCCC)OC(=O)CCCCCCC/C=C\CC(O)CCCCCC` (stereo not drawn) here?
Answer: 229.00 °C

Question: For `Nc1ccccc1O` [2-aminophenol], which flash point is on record?
Answer: 168.00 °C

Question: Which flash point does the source give for `Cc1ccccc1N(C)C` [N,N,2-trimethylaniline] here?
Answer: 83.00 °C

Question: For `CCCC[O-].CCCC[O-].CCCC[O-].CCCC[O-].[Ti+4]` [butan-1-olate;titanium(4+)], which flash point is on record?
Answer: 77.00 °C

Question: Which flash point does the source give for `CC1OC1C` (stereo not drawn) [2,3-dimethyloxirane] here?
Answer: -18.00 °C

Question: For `CCCCNCC` [N-ethylbutan-1-amine], which flash point is on record?
Answer: 18.00 °C

Question: Which flash point does the source give for `CCOc1ccc2c(c1)C(C)=CC(C)(C)N2` [6-ethoxy-2,2,4-trimethyl-1H-quinoline] here?
Answer: 107.00 °C

Question: Which flash point does the source give for `OCCNCCO` [2-(2-hydroxyethylamino)ethanol] here?
Answer: 137.00 °C

Question: For `S=c1[nH]c2ccccc2s1` [3H-1,3-benzothiazole-2-thione], which flash point is on record?
Answer: 200.00 °C

Question: For `CCOP(=O)(OCC)SCCSCC.CCOP(=S)(OCC)OCCSCC`, which flash point is on record?
Answer: 45.00 °C

Question: For `CCCCOCC` [1-ethoxybutane], which flash point is on record?
Answer: 4.00 °C

Question: Which flash point does the source give for `CCOC(=O)CC` [ethyl propanoate] here?
Answer: 12.00 °C

Question: For `CC(C)=CCCC(C)CC=O` (stereo not drawn) [3,7-dimethyloct-6-enal], which flash point is on record?
Answer: 74.00 °C

Question: With `Cc1cccc(CBr)c1` [1-(bromomethyl)-3-methylbenzene] as the molecule, how does the flash point read?
Answer: 82.00 °C

Question: With `C1CCOCC1` [oxane] as the molecule, how does the flash point read?
Answer: -20.00 °C

Question: For `C=C(C)C(=O)OC(C)CO` (stereo not drawn) [1-hydroxypropan-2-yl 2-methylprop-2-enoate], which flash point is on record?
Answer: 121.00 °C

Question: For `Clc1ccc(-c2ccc(Cl)c(Cl)c2Cl)c(Cl)c1Cl` [1,2,3-trichloro-4-(2,3,4-trichlorophenyl)benzene], which flash point is on record?
Answer: 141.00 °C

Question: Which flash point does the source give for `CCOP(=S)(OCC)SCSP(=S)(OCC)OCC` here?
Answer: 176.00 °C

Question: With `CCOP(=O)(OCC)OCC` [triethyl phosphate] as the molecule, how does the flash point read?
Answer: 116.00 °C

Question: Which flash point does the source give for `NCCCO` [3-aminopropan-1-ol] here?
Answer: 79.00 °C

Question: For `CCCC[Si](Cl)(Cl)Cl` [butyl(trichloro)silane], which flash point is on record?
Answer: 52.00 °C

Question: With `CCC` [propane] as the molecule, how does the flash point read?
Answer: -104.00 °C
